Assay results: patent US9365851B2, “Spalt-like transcription factor 4 (SALL4) and uses thereof” (National University of Singapore, priority 2011, dated 2016)

Legend:
[1] = system: SNU-398 cells; test: Cell viability assay (MTT/MTS); type: cell-based, human; conditions: for cell viability on co-treatment with wt peptide (rescue): SNU-398, wt peptide + PTEN inhibitor
Method: (§1) Cell viability was determined 72 hours after peptide treatments. Absorbance at 490 nm is directly correlated to cell viability. Wild type functional SALL4 peptide (wt), mutant non-functional SALL4 peptide (Mut.), trichostatin A (TSA), scrambled control peptide (Scr.), wild type peptide+PTEN inhibitor SF1670 (wt+Inh.) were given to the cells at the indicated concentration. PTEN inhibitor concentration was 400 nM. (31C, 31D) Western blot analyses of the effects of peptides on PTEN, AKT, and pAKT expression on SNU-398 (31C) and SNU-387 (31D) cells 72 hours following peptide treatments. 20 μM of wt or Scr. peptide or 100 nM of TSA was used. PTEN inhibitor concentration was 400 nM. (31E) Representative images show NOD/SCID mice transplanted with Scr peptide- and wt peptide-treated SNU-398 cells (left) and the dissected subcutaneous tumors (right). Arrow indicates subcutaneous tumor. (31F) Growth curve of subcutaneous tumors (left panel) and tumor weight of tumors dissected at day 26 post-transplantation (right panel). Results are mean±s.d. n=5; * P<0.05. (31G) Representative images show NOD/SCID mice transplanted with 3 million SNU-398 cells at the left flank and treated intraperitoneally for five consecutive days with 56 mg/kg body weight TAT-Mut. peptide or 60 mg/kg body weight wt peptide (top panel) and the dissected subcutaneous tumors (bottom). (31H) Tumor weight of tumors dissected at day 18 post-transplantation and post-treatment of mice treated intraperitoneally with TAT fusion peptides as described in 5 g. Results are mean±s.d. n=5; * P<0.05.
(§2) Cell viability assay (MTT) (Invitrogen) was performed according to the manufacturer's instructions. Briefly—10000 cells were seeded in 100 ul medium in 96 well plates. The next day cells were treated as indicated on the figures. At the designated time after the treatment 20 ul of 5 mg/ml MTT solution was added to each well. After 3.5 h incubation at 37 C the medium was removed and the reaction was terminated with a solution of 4 mM HCl, 0.1% Nondet P-40 (NP40) all in isopropanol in dark on orbital shaker for […]. at room temperature. The absorbance was read at 590 nm with a reference filter of 620 nm in Spectromax M3 (ABI) spectrophotometer.
(§3) Multiple leukemic and solid tumor cancer cell lines with high or low/no SALL4 expression (FIG. 10A) were chosen to test the biological effect(s) of the wild type peptide. Wild type or scrambled peptide was delivered into tumor cells at various concentrations, and their effects on cells were evaluated 72 hours post-treatment by the MTS cell viability assay. […] The effect of wild type peptide is SALL4-specific, as it had no effect on KBM5, an AML cell line with undetectable endogenous SALL4 expression. We were surprised to see that the wild type peptide had no effect on a high SALL4-expressing endometrioid cancer cell line, AN3CA. This prompted checking whether PTEN, a gene repressed by SALL4 through its interaction with NuRD 27, was present in this cell line. According to the model herein, the function of wild type peptide requires both the expression of SALL4 and intact SALL4 downstream target genes, such as PTEN. In tumor cells with PTEN deletion, even though wild type peptide could compete with endogenous SALL4 in interacting with the HDAC complex, an anti-proliferative effect might not be observed. Therefore, expression of PTEN was evaluated in AN3CA cells along with other cell lines. While PTEN protein was present in all the other cell lines, it was absent in AN3CA cells (FIG. 10C), with reported deletion mutation of the gene in this cell line 40,41. […] Furthermore, the anti-proliferative effect also required certain downstream targets, such as PTEN.
7000 cells were seeded in each wells of a microtiter plate in 100 μL of complete medium. Cells from each treatment were seeded in duplicate. Controls using the same medium without cells were set up in parallel. […]

[2] = system: PTEN/AKT pathway; test: PTEN/AKT pathway expression in SNU-398 cells after treatment (Western blot, mRNA); type: cell-based, human; conditions: SNU-398
From the text: The induction of Pten expression was not affected when wt peptide was administrated together with a Pten inhibitor. AKT, a molecule with levels of phosphorylation controlled by the expression of Pten was affected by the wt peptide addition accordingly. […] The effect of wt peptide on pAKT was abrogated by the Pten inhibitor. […] In contrast, the protein expression level of endogenous Pten was very high in the none-SALL4 expressing SNU387 cells.
Then tested was whether this peptide could reverse the repressive effect of SALL4 on its target genes. The focus was onPTEN, since it is implicated in SALL4-mediated leukemogenesis (Yang et al., Blood, 112:805-813 (2008); Lu et al., PLoS One, 4:e5577 (2009)). In addition, it was previously reported that SALL4 could specifically bind to the PTEN promoter region in a chromatin immunoprecipitation (ChIP) assay (Lu et al., PLoS One, 4:e5577 (2009)). When SALL4 was overexpressed in 293T cells, an enrichment of SALL4 as well as decreased H3 acetylation at this binding site was observed, which correlated with decreased PTEN RNA expression (Lu et al., PLoS One, 4:e5577 (2009))). Therefore, it was hypothesized that SALL4 could recruit the HDAC/NuRD complex to repress PTEN, and that the wild type peptide would compete with endogenous SALL4 in recruiting the HDAC/NuRD complex to the PTEN promoter, and release the repression effect of SALL4 on PTEN. Furthermore, this model would predict that wild type peptide treatment of SALL4-expressing cells would lead to increased epigenetic markers of gene activation, such as H3 acetylation, at the PTEN promoter binding site, as well as an increase in PTEN expression. To test this possibility, SNU-398 cells were treated with scrambled or wild type peptide and subsequently evaluated for PTEN expression and H3 acetylation at the SALL4 binding site at the PTEN promoter region. […] Therefore, the results herein are compatible with the model that SALL4 recruits HDACs to repress PTEN expression, and blocking the SALL4-HDAC interaction with the wild type peptide results in increased expression of PTEN.
To confirm the involvement of PTEN tumor suppressor in SALL4 peptide-induced reduction of number of viable HCC cells, PTEN expression was analyzed by western blot upon drug treatment. […] Whether the increase in PTEN expression upon SALL4 peptide treatment has an effect in PI3K signalling by dephosphorylating AKT was examined.
To confirm the involvement of the PTEN tumor suppressor in the SALL4 peptide-induced reduction of HCC cell viability, PTEN expression was analyzed by western blot upon drug treatment. […] If the increase in PTEN expression has an effect in PI3K signaling was next examined. PTEN functions as a phosphatase to dephosphorylate AKT.

[3] = system: SNU-387 cells; test: Cell viability assay (MTT/MTS); type: cell-based, human; conditions: SNU-387, wt peptide + PTEN inhibitor
Method: as §1, §2
7000 cells were seeded in each wells of a microtiter plate in 100 μL of complete medium. Cells from each treatment were seeded in duplicate. Controls using the same medium without cells were set up in parallel. At various time points, 317 μg/mL of 3-(4,5-dimethylthiazol-2-yl)-5-(3-carboxymethoxyphenyl)-2-(4-sulfophenyl)-2H-tetrazolium (CellTiter96® AQueous One Solution Cell Proliferation Assay, Promega) was added to each well. After four hours incubation of the tetrazolium salt, absorbance at 490 nm was read by a microplate reader.

[4] = system: THP1 cells; test: MTS cell viability assay; type: cell-based; conditions: THP1, wt peptide + PTEN inhibitor
Method: as §3
(§4) To further test whether the effect of wild type peptide on tumor cells is related to PTEN, a PTEN inhibitor (SF1670) was used (Li et al., Blood, 117:6702-6713). […] As a control for the specificity of SALL4, KBM5, a non-SALL4-expressing cell line was also treated with PTEN inhibitor.

[5] = system: KBM5 cells; test: MTS cell viability assay; type: cell-based; conditions: KBM5, wt peptide + PTEN inhibitor
Method: as §3, §4

[6] = biological target: T1, HDAC complex (Homo sapiens, UniProt Q09028); test: Fluorescent polarization competitive binding in SNU-398 nuclear extracts; conditions: Example 6
T1 construct: endogenous in cells; host or cells: SNU-398 nuclear extract
Method: Below are the amino acid sequences of the peptides used in this study. In the mutant peptide (mut), Lys 5 is replaced with an alanine residue. […] In the first lane marked “Input”, 10% of the extracts were subjected to western blot analysis without immunoprecipitation. […] Extracts were subsequently immunoprecipitated with anti-FITC antibody and the complexes pulled down were subjected to an HDAC activity assay as described in the methods. TSA was added at a concentration of 100 nM. Input is the sample in which 10% of the extract was assayed for HDAC activity without the immunoprecipitation step. […] Competitive binding of nonlabeled wild type or scrambled peptides was measured by fluorescent polarization. […] The fluorescent polarization (y axis) is decreased if the FITC-labeled peptide is displaced from a larger complex.
Next tested was the binding affinity of the wild type and scrambled peptides to the HDAC complex. For this, Fluorescent Polarization (FP), a technology based on molecular movement and rotation in which fluorescent molecules are excited with polarized light, was used. If the fluorescent molecules are part of a large complex, they rotate less and the emitted light has high polarity. In contrast, smaller molecules rotate faster and have low polarity (“depolarized”). […] Using this approach, FITC-labeled wild type or scrambled peptides were first mixed with nuclear extracts from SNU-398 cells. Serial dilutions of unlabeled wild type or scrambled peptides were then added as competitors respectively, and measured by FP assay.

T1 sequence (Q09028 whole entry, one chain of several): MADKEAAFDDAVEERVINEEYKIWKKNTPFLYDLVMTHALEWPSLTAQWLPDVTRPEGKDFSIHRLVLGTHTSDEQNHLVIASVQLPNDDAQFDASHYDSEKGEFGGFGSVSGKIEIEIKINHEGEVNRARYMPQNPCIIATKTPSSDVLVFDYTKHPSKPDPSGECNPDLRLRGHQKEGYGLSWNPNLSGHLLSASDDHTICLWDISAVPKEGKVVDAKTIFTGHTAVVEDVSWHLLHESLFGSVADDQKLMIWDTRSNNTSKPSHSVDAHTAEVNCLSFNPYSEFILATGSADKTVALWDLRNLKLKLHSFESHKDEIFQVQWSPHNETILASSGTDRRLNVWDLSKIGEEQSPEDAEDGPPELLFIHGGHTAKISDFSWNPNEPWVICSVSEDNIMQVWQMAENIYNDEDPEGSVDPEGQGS

CC(C)(C)C(=O)Nc1ccc2c(c1)C(=O)C(=O)c1ccccc1-2 [SF1670, reference compound]
cell viability on co-treatment with wt peptide (rescue) [1]: able to rescue the phenotype
cell viability on co-treatment with wt peptide (rescue) ([1]; listed as PTEN inhibitor): able to rescue the phenotypes
cell viability on co-treatment with wt peptide (rescue) ([1]; listed as SF-1670): restored the cell viability to a baseline level
effect of wt peptide on pAKT on co-treatment with PTEN inhibitor ([2]; listed as PTEN inhibitor): can be rescued
effect of wt peptide on pAKT on co-treatment with PTEN inhibitor ([2]; listed as Pten inhibitor): abrogated
cell viability on co-treatment with wt peptide [3]: showed no effect as well
cell viability on co-treatment with wt peptide (rescue) [4]: restored the cell viability to the baseline levels
cell viability on co-treatment with wt peptide [5]: showed no effect as well

NH2-YGRKKRRQRRR-MSAAAQAKPHI-COOH (H-YGRKKRRQRRRMSAAAQAKPHI-OH) [TAT-Mut, reference compound]
cell viability / number of viable cells ([1]; SNU-398 (high SALL4), 72 h): did not exhibit such cell killing effect
binding affinity by FP [6]: minimal binding
